We go through 5 compounds from ChEMBL document CHEMBL1201862, “PubChem BioAssay data set” (2004).

Activity calls are given as the source filed them.

Usually IC50 stands for the concentration that gives 50% inhibition. The EC50 is the concentration needed to bring the measured effect to its halfway point.

For one test, the target named is T1, Cysteine protease ATG4B (Homo sapiens, UniProt Q9Y4P1).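 Further: Fluorescence-based dose-response confirmation assay measuring inhibition of ATG4B activity.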
T1 sequence (Q9Y4P1 whole entry): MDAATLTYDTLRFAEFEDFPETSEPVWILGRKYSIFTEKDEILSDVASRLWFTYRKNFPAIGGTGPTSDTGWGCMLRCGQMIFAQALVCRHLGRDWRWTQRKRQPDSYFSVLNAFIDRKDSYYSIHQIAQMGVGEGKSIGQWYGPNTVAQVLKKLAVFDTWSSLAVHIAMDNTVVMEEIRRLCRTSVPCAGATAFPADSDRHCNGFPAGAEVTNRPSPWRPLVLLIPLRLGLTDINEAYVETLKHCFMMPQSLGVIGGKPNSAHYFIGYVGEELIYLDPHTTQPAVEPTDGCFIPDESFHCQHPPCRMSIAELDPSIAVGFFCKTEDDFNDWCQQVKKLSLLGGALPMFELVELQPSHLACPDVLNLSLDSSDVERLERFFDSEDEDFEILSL
The class given is functional.

In the next test the target is Phospholipase A2 (Homo sapiens, UniProt P04054). The format is functional.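 Further: confirmatory dose-response counterscreen on phospholipase A2, testing hits that came from an ultra-high-throughput screen for ATG4B inhibitors.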
The target in test [1] is T2, Apoptotic protease-activating factor 1 (Homo sapiens, UniProt O14727).
T2 sequence (O14727 whole entry): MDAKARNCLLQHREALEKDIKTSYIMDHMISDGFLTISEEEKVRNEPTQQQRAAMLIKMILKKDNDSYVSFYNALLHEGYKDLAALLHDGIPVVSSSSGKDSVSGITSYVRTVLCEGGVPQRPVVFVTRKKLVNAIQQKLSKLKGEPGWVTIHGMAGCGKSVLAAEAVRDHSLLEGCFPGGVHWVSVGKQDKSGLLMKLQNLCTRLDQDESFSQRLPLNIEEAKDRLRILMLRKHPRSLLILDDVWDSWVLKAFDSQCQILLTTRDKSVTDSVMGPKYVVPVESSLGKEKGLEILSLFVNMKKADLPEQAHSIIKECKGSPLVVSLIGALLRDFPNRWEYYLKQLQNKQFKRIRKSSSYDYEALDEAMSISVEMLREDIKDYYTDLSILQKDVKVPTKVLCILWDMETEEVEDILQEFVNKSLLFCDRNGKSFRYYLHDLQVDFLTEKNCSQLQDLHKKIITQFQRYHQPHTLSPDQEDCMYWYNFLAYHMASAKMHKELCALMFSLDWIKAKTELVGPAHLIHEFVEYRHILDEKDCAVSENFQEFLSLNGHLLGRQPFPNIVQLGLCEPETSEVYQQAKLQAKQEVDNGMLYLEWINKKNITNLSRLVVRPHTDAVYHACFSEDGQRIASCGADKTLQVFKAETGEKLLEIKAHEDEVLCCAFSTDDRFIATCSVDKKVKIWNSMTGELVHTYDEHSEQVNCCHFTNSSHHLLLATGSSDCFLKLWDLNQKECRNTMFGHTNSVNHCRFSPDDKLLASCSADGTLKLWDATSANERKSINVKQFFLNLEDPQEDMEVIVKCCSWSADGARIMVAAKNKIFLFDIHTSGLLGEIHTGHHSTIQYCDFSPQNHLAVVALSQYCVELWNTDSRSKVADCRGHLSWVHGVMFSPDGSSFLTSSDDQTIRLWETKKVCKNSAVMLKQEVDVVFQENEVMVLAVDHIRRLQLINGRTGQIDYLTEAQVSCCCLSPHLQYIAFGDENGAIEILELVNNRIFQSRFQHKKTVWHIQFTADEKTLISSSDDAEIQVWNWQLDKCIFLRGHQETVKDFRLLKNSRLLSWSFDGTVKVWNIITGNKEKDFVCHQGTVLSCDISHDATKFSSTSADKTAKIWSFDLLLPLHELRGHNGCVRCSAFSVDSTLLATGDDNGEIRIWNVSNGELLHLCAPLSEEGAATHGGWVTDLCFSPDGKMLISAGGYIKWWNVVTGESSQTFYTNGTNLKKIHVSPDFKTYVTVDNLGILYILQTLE
The format is functional.

Test [2] concerns the target T3, Tyrosyl-DNA phosphodiesterase 2 (Homo sapiens, UniProt O95551).
T3 sequence (O95551 whole entry): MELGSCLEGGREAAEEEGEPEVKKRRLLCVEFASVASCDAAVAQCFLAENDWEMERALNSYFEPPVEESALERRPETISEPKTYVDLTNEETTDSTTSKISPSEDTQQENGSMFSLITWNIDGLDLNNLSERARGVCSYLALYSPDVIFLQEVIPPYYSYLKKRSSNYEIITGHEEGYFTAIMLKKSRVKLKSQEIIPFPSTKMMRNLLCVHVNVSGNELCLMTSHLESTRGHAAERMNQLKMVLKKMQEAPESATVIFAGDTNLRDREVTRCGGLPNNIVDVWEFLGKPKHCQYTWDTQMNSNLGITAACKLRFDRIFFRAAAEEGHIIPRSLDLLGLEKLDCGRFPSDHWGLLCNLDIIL
Briefly: human TDP2 enzyme inhibitors, dose response, biochemical, epi absorbance, IC50 (AID 743297).

Test [3] addresses T4, Dual specificity protein phosphatase 6 (Rattus norvegicus, UniProt Q64346).
T4 sequence (Q64346 whole entry): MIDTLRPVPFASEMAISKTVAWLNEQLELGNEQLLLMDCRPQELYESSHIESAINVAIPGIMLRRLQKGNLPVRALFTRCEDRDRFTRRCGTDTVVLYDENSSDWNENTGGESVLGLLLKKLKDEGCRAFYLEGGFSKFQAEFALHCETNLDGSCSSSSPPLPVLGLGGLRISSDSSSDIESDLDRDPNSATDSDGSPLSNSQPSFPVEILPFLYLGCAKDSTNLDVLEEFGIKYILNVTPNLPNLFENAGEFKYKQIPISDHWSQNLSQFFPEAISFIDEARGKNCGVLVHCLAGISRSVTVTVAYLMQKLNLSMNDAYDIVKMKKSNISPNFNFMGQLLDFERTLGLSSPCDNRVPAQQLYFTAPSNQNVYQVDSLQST
Briefly: MKP-3 phosphatase inhibitors, primary screen, biochemical, rat enzyme, in vitro (AID 425).

Test [4] deals with T5, Zinc finger protein mex-5 (Caenorhabditis elegans, UniProt Q9XUB2).
T5 sequence (Q9XUB2 whole entry): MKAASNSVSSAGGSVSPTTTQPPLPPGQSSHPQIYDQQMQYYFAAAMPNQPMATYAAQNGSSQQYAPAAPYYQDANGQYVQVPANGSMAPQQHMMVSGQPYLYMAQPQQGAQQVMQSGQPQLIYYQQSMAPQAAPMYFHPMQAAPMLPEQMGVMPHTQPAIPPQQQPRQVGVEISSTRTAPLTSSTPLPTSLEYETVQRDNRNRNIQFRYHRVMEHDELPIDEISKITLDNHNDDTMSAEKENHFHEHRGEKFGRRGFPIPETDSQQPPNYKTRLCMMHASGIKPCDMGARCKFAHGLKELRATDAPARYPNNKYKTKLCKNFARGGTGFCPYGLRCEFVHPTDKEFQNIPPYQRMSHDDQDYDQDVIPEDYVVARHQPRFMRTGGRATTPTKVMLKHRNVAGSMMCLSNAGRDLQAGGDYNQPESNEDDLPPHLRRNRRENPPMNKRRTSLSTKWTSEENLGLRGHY
Briefly: MEX-5/TCR-2 RNA interaction inhibitors, dose response, biochemical, C. elegans, fluorescence polarization (AID 1960). Background: In fluorescence polarisation assays a small probe gives low polarisation when free and higher when bound to something large.

Sequence of Phospholipase A2 (P04054 whole entry): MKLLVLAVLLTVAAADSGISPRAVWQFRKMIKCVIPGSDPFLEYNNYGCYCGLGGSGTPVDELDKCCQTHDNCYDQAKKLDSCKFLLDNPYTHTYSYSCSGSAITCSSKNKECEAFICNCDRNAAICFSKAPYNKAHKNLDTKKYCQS

Consider `COC(=O)c1cc(C)nc2c1C(=O)C(=O)C=C2N1CCOCC1`, for which the IC50 was 4.45 µM (active) at Cysteine protease ATG4B, 65.6 µM (inactive) at Phospholipase A2, 1.01 µM (active) in test [1] and 1.33 µM (active) in test [2].
For the compound `N#Cc1c(N2CCCC2)nc(N)c2c(N)nc(N3CCCC3)cc12`, the IC50 in test [3] was 1.05 µM (active); on Cysteine protease ATG4B it was 1.64 µM (active); on Phospholipase A2, 11.7 µM (active); in test [1], 0.181 µM (active).
Take `NS(=O)(=O)c1cc(C(=O)NC2CCSc3ccccc32)ccc1Cl` (stereo unspecified): the EC50 in test [4] was 18.9 µM (inconclusive). For the same compound, the IC50 is > 158 µM (not active) in test [3], 6.64 µM (active) on Cysteine protease ATG4B and 24.1 µM (inactive) on Phospholipase A2.
With `CCOC(=O)C1=C(C)OC2(O)c3ccccc3C(=O)C12O` (stereo unspecified), the results for the IC50 in test [1] and in test [2] were 2.55 µM (active) and 4.11 µM (active), respectively.
As to `O=C1c2ccccc2C(=O)c2[nH]c(O)nc21`, in test [4], the EC50 was 17.9 µM (active). Also, in test [1], the IC50 was 6.79 µM (active).
